Experimental data from ChEMBL document CHEMBL5352436, “Triterpenoid pyrazines and pyridines - Synthesis, cytotoxicity, mechanism of action, preparation of prodrugs” (Eur J Med Chem, 2022).
pIC50: −log10 of the molar value. Activity calls are given as the source filed them. No cut-off for these calls is given here.

How the values were obtained:
[1] = Cytotoxicity against human K562-Tax cells assessed as reduction in cell viability incubated for 72 hrs by MTS assay; assay type: functional, cell-based
[2] = Cytotoxicity against human HCT116-p53-null cells assessed as reduction in cell viability incubated for 72 hrs by MTS assay; assay type: functional, cell-based
[3] = tested on: A549; test: Cytotoxicity against human A549 cells assessed as reduction in cell viability incubated for 72 hrs by MTS assay; assay type: functional, cell-based; conditions: A549, 72 h
[4] = Cytotoxicity against human MRC5 cells assessed as reduction in cell viability incubated for 72 hrs by MTS assay; assay type: toxicity, cell-based
[5] = tested on: K562; test: Cytotoxicity against human K562 cells assessed as reduction in cell viability incubated for 72 hrs by MTS assay; assay type: functional, cell-based; conditions: K562, 72 h
[6] = tested on: U2OS; test: Cytotoxicity against human U2OS cells assessed as reduction in cell viability incubated for 72 hrs by MTS assay; assay type: functional, cell-based
[7] = Cytotoxicity against human BJ cells assessed as reduction in cell viability incubated for 72 hrs by MTS assay; assay type: toxicity, cell-based
[8] = tested on: CEM-DNR; test: Cytotoxicity against human CEM-DNR cells assessed as reduction in cell viability incubated for 72 hrs by MTS assay; assay type: functional, cell-based
[9] = tested on: HCT-116; test: Cytotoxicity against human HCT-116 cells assessed as reduction in cell viability incubated for 72 hrs by MTS assay; assay type: functional, cell-based; conditions: HCT-116, 72 h
[10] = tested on: CCRF-CEM; test: Cytotoxicity against human CCRF-CEM cells assessed as reduction in cell viability incubated for 72 hrs by MTS assay; assay type: functional, cell-based
[11] = Drug localization in human CCRF-CEM cells assessed as MT-CO2 signal at 10 uM incubated for 4 hrs by click reaction analysis; assay type: ADME, cell-based
[12] = tested on: CCRF-CEM; test: Induction of apoptosis in human CCRF-CEM cells assessed as late apoptotic cells at 1 time IC50 incubated for 24 hrs by Annexin V and propidium iodide staining based flow cytometry analysis (reference value: […]); assay type: functional
[13] = tested on: HCT-116; test: Antitumor activity in human HCT-116 cells cultured as spheroids assessed as inhibition of cell growth at 10 uM incubated for 3 days; assay type: functional; parameters: scale not given: the % may be the effect or the level left; conditions: time 3 day
[14] = tested on: CCRF-CEM; test: Induction of apoptosis in human CCRF-CEM cells assessed as early apoptotic cells at 5 times IC50 incubated for 24 hrs by Annexin V and propidium iodide staining based flow cytometry analysis […]; assay type: functional
[15] = tested on: CCRF-CEM; test: Induction of apoptosis in human CCRF-CEM cells assessed as viable cells at 5 times IC50 incubated for 24 hrs by Annexin V and propidium iodide staining based flow cytometry analysis […]; assay type: functional
[16] = tested on: CCRF-CEM; test: Induction of apoptosis in human CCRF-CEM cells assessed as viable cells at 1 time IC50 incubated for 24 hrs by Annexin V and propidium iodide staining based flow cytometry analysis […]; assay type: functional
[17] = tested on: CCRF-CEM; test: Induction of apoptosis in human CCRF-CEM cells assessed as necrotic cells at 1 time IC50 incubated for 24 hrs by Annexin V and propidium iodide staining based flow cytometry analysis (reference value: 0.0%); assay type: functional
[18] = tested on: CCRF-CEM; test: Induction of apoptosis in human CCRF-CEM cells assessed as late apoptotic cells at 5 times IC50 incubated for 24 hrs by Annexin V and propidium iodide staining based flow cytometry analysis […]; assay type: functional
[19] = tested on: CCRF-CEM; test: Induction of apoptosis in human CCRF-CEM cells assessed as early apoptotic cells at 1 time IC50 incubated for 24 hrs by Annexin V and propidium iodide staining based flow cytometry analysis (reference value: […]); assay type: functional
[20] = tested on: CCRF-CEM; test: Induction of mitochondrial damage in human CCRF-CEM cells at >= 10 uM incubated for 4 hrs by light microscopic analysis; assay type: functional, cell-based
[21] = tested on: CCRF-CEM; test: Induction of apoptosis in human CCRF-CEM cells assessed as necrotic cells at 5 times IC50 incubated for 24 hrs by Annexin V and propidium iodide staining based flow cytometry analysis […]; assay type: functional
[22] = tested on: HeLa; test: Antitumor activity in human HeLa cells cultured as spheroids assessed as inhibition of spheroid opening at 1 uM incubated for 3 days; assay type: functional, cell-based; conditions: time 3.0 day
[23] = tested on: CCRF-CEM; test: Induction of mitochondrial changes in human CCRF-CEM cells at 10 uM incubated for 4 hrs by electron microscopic analysis; assay type: functional, cell-based
[24] = Stability in human plasma assessed as compound remaining at 2 uM measured at 15 mins by RF-MS analysis; assay type: ADME, cell-free; conditions: read-out: Stability
[25] = Plasma protein binding in human at 10 uM by rapid equilibrium dialysis based RF-MS analysis; assay type: ADME, cell-free; conditions: read-out: PB (converted)
[26] = Stability in human plasma assessed as compound remaining at 2 uM measured at 30 mins by RF-MS analysis; assay type: ADME, cell-free; conditions: read-out: Stability
[27] = tested on: CCRF-CEM; test: Induction of apoptosis in human CCRF-CEM cells assessed as PARP cleavage at 1 to 5 times IC50 incubated for 24 hrs by Western blot analysis; assay type: functional, cell-based
[28] = Stability in human liver microsomes assessed as compound remaining at 2 uM measured at 60 mins in presence of NADPH by RF-MS analysis; assay type: ADME, Microsome; conditions: read-out: Stability
[29] = tested on: CCRF-CEM; test: Induction of apoptosis in human CCRF-CEM cells assessed as increase in Noxa expression at 1 to 5 times IC50 incubated for 24 hrs by Western blot analysis; assay type: functional, cell-based
[30] = Stability in human plasma assessed as compound remaining at 2 uM measured at 120 mins by RF-MS analysis; assay type: ADME, cell-free; conditions: read-out: Stability
[31] = Chemical stability in PBS buffer at pH 7.4 assessed as compound remaining measured at 15 mins by RF-MS analysis; assay type: physicochemical; conditions: read-out: Stability
[32] = tested on: CCRF-CEM; test: Induction of apoptosis in human CCRF-CEM cells assessed as accumulation of Bax protein expression at 1 to 5 times IC50 incubated for 24 hrs by Western blot analysis; assay type: functional, cell-based
[33] = tested on: CCRF-CEM; test: Induction of apoptosis in human CCRF-CEM cells assessed as decrease in c-Myc expression at 1 to 5 times IC50 incubated for 24 hrs by Western blot analysis; assay type: functional, cell-based
[34] = Stability in human liver microsomes assessed as compound remaining at 2 uM measured at 15 mins in presence of NADPH by RF-MS analysis; assay type: ADME, Microsome; conditions: read-out: Stability
[35] = Stability in human liver microsomes assessed as compound remaining at 2 uM measured at 30 mins in presence of NADPH by RF-MS analysis; assay type: ADME, Microsome; conditions: read-out: Stability
[36] = Apparent permeability of the compound in MDCK-MDR1 cells at 10 uM incubated for 1 hr by RF-MS analysis; assay type: ADME, cell-based, Canis lupus familiaris; conditions: dog
[37] = Apparent permeability of the compound in MDCK-MDR1 cells assessed as drug recovery at 10 uM incubated for 1 hr by RF-MS analysis; assay type: ADME, cell-based, Canis lupus familiaris; conditions: dog, read-out: Drug recovery
[38] = Chemical stability in PBS buffer at pH 7.4 assessed as compound remaining measured at 60 mins by RF-MS analysis; assay type: physicochemical; conditions: read-out: Stability
[39] = Stability in human plasma assessed as compound remaining at 2 uM measured at 60 mins by RF-MS analysis; assay type: ADME, cell-free; conditions: read-out: Stability
[40] = Chemical stability in PBS buffer at pH 7.4 assessed as compound remaining measured at 120 mins by RF-MS analysis; assay type: physicochemical; conditions: read-out: Stability
[41] = tested on: CCRF-CEM; test: Induction of apoptosis in human CCRF-CEM cells assessed as accumulation of Bid protein expression at 1 to 5 times IC50 incubated for 24 hrs by Western blot analysis; assay type: functional, cell-based
[42] = Efflux ratio of apparent permeability across basolateral to apical side over apical to basolateral side in MDCK-MDR1 cells; assay type: ADME, cell-based, Canis lupus familiaris; conditions: dog
[43] = Chemical stability in PBS buffer at pH 7.4 assessed as compound remaining measured at 30 mins by RF-MS analysis; assay type: physicochemical; conditions: read-out: Stability

Row | SMILES | pIC50 [1] | pIC50 [2] | pIC50 [3] | IC50 at 72 h [4] [nM] | pIC50 [5] | pIC50 [6] | IC50 at 72 h [7] [nM] | pIC50 [8] | pIC50 [9] | pIC50 [10] | Activity [12] [%] | Activity [13] [%] | Activity [14] [%] | Activity [15] [%] | Activity [16] [%] | Activity [17] [%] | Activity [18] [%] | Activity [19] [%] | Activity [21] [%] | Activity [22] | other results
1 | C#CCOC(=O)[C@]12CC[C@@H](C(=C)C)[C@@H]1[C@H]1CC[C@@H]3[C@@]4(C)Cc5nccnc5C(C)(C)[C@@H]4CC[C@@]3(C)[C@]1(C)CC2 | < 4.30 | < 4.30 | < 4.30 | > 50000 | < 4.30 | < 4.30 | > 50000 | 4.30 | < 4.30 | 4.35 | – | – | – | – | – | – | – | – | – | – | Drug uptake [11]: Not Active
2 | C#CCOC(=O)[C@]12CC[C@@H](C(=C)C=O)[C@@H]1[C@H]1CC[C@@H]3[C@@]4(C)Cc5nccnc5C(C)(C)[C@@H]4CC[C@@]3(C)[C@]1(C)CC2 | 5.85 | 5.20 | 5.77 | 6600 | 5.80 | 5.85 | 7200 | 5.77 | 5.15 | 6.37 | – | – | – | – | – | – | – | – | – | – | Drug uptake [11]: Active
3 | C=C(C)[C@@H]1CC[C@]2(C(=O)O)CC[C@]3(C)[C@H](CC[C@@H]4[C@@]5(C)Cc6nccnc6C(C)(C)[C@@H]5CC[C@]43C)[C@@H]12 | – | – | – | – | – | – | – | – | – | – | 2.2 | 100 | 0.8 | 92 | 92.3 | 3.7 | 2.6 | 1.7 | 4.5 | Active | Activity [20]: inactive; Activity [23]: Active
4 | C=C(C=O)[C@@H]1CC[C@]2(C(=O)OCc3cn([C@H]4O[C@H](COC(C)=O)[C@@H](OC(C)=O)[C@H](OC(C)=O)[C@H]4OC(C)=O)nn3)CC[C@]3(C)[C@H](CC[C@@H]4[C@@]5(C)Cc6nccnc6C(C)(C)[C@@H]5CC[C@]43C)[C@@H]12 (stereo in doubt) | 5.57 | 5.77 | 5.74 | 1800 | 5.92 | 5.80 | 2300 | 5.82 | 5.82 | 6.12 | 23.9 | 100 | 56 | 5.3 | 18.1 | 4.1 | 37.7 | 53.8 | 1 | Active | remaining at 0.25 h, 2 µM [24]: 104%; fraction unbound at 10 µM [25]: 0.0017; remaining at 0.5 h, 2 µM [26]: 97.2%; Activity [27]: Active; remaining at 1 h, 2 µM [28]: 58.9%; Activity [29]: Active; remaining at 2 h, 2 µM [30]: 88.5%; remaining at 0.25 h [31]: 99.9%; Activity [32]: Active; Activity [33]: Active; remaining at 0.25 h, 2 µM [34]: 96.8%; remaining at 0.5 h, 2 µM [35]: 95.7%; Papp at 1 h, 10 µM [36]: 0.12 ×10⁻⁶ cm/s; recovery at 1 h, 10 µM [37]: 77.6%; remaining at 1 h [38]: 87.8%; remaining at 1 h, 2 µM [39]: 88.7%; remaining at 2 h [40]: 85.2%; Activity [41]: Active; efflux ratio [42]: 4.49; remaining at 0.5 h [43]: 91.1%
5 | C=C(C=O)[C@@H]1CC[C@]2(C(=O)O)CC[C@]3(C)[C@H](CC[C@@H]4[C@@]5(C)Cc6nccnc6C(C)(C)[C@@H]5CC[C@]43C)[C@@H]12 | – | – | – | – | – | – | – | – | – | – | 3.6 | 100 | 54 | 2.7 | 85.1 | 5.8 | 42.8 | 5.5 | 0.5 | Active | Activity [27]: Active; Activity [29]: Active; Activity [32]: Active; Activity [20]: inactive; Activity [33]: Active; Activity [41]: Active
